The target in one experiment is FGFR2 (Homo sapiens (Human), UniProt P21802). In words: Biochemical FGFR2 Caliper assay.
Another experiment has as its system SNU-16. In words: Cell SNU-16 assay. Format: cell-based.
The mark [1] stands for this setting: Homo sapiens, SNU-16, SNU-16 cells.

The results in this text go back to patent US11780845B2 (Relay Therapeutics, Inc., priority 2019, dated 2023).

FGFR2, sequence (P21802 22-821): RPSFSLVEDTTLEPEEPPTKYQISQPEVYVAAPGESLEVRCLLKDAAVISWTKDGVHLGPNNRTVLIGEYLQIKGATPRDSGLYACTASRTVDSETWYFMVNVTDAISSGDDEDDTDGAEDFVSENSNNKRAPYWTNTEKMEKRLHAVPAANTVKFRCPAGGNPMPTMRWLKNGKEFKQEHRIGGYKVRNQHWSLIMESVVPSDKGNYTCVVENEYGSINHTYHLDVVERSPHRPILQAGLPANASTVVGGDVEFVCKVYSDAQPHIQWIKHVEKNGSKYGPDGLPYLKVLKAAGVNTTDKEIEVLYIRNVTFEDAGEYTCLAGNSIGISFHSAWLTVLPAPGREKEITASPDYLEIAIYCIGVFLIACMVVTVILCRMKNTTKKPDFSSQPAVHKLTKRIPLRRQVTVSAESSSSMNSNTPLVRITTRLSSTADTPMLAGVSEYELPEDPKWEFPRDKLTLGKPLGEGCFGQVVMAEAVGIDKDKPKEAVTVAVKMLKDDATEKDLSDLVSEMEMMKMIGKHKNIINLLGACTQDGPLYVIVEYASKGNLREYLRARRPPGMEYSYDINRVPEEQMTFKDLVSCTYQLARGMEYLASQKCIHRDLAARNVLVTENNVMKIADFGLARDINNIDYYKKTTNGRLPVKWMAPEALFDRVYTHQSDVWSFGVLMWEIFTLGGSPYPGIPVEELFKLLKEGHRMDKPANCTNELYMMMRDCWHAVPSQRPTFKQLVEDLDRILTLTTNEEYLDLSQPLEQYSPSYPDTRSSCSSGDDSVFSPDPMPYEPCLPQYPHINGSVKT

Broadly, the IC50 is the concentration that gives 50% inhibition. A high value points to weaker potency in that assay. In the case of `C=CC(=O)Nc1cccc(-c2c(-c3ccc4c(c3)CCCN4C)c3c(N)ncnc3n2C)c1` [Example 1027], the IC50 at FGFR2 and in the experiment with SNU-16 (setting [1]) was 1000 to 100000 nM throughout.
As for `C#Cc1ccc(-c2c(C3=CC[C@H](C(=O)N4CCCC45COC5)CC3)c3c(N)ncnc3n2C)c(C)n1` [Example 1304], the IC50 at FGFR2 and in the experiment with SNU-16 (setting [1]) was 250 to 1000 nM in each case.
With `C=C(C)C(=O)Nc1ccc(-c2c(C3=CC[C@@H](C(=O)NCC4(F)COC4)CC3)c3c(N)ncnc3n2C)cc1` [Example 1022], the IC50 against FGFR2 fell in the range of 250 to 1000 nM; in the experiment on SNU-16 (setting [1]) it was 1000 to 100000 nM.
With `C=C(C)C(=O)Nc1ccc(-c2c(-c3ccc4occc4c3)c3c(N)ncnc3n2C)cc1` [Example 1288], the IC50 against FGFR2 and with SNU-16 (setting [1]) was 1000 to 100000 nM in each case.
In the case of `C#Cc1ncc(-c2c(-c3ccc(C(=O)N4CCC[C@H]4C#C)cc3)c3c(N)ncnc3n2C)c(C)c1F` (single isomer, unassigned) [Example 1331], the IC50 against FGFR2 is < 100 nM; with SNU-16 (setting [1]), ≤ 100 nM.
Regarding `C=C(C)C(=O)Nc1cc(C)c(-c2c(C3=CC[C@@H](C(=O)N4CCCC4)CC3)c3c(N)ncnc3n2C)c(F)c1` [Example 1483], the IC50 was < 100 nM against FGFR2 and ≤ 100 nM in the experiment on SNU-16 (setting [1]).
Consider `C=C(C)C(=O)Nc1ccc(-c2c(-c3ccc4cc[nH]c4c3)c3c(N)ncnc3n2C)cc1` [Example 1297], for which the IC50 against FGFR2 and with SNU-16 (setting [1]) was 250 to 1000 nM throughout.
For the compound `C=C(C)C(=O)Nc1ccc(-c2c(C3=CC[C@@](C)(C(=O)N4CCCC4)CC3)c3c(N)ncnc3n2C)cc1` [Example 1009], the IC50 at FGFR2 fell in the range of 1000 to 100000 nM; with SNU-16 (SNU-16 cells), 250 to 1000 nM.
In the case of `C#Cc1ncc2cc(-c3c(-c4ccc(Oc5nccc(C)n5)c(F)c4)c4c(N)ncnc4n3C)ccc2n1` [Example 1385], the IC50 against FGFR2 was < 100 nM; in the experiment on SNU-16 (setting [1]) it was ≤ 100 nM.
For the compound `C=CC(=O)Nc1ccc(-c2c(-c3ccc(Oc4nccc(C)n4)cc3)c3c(N)ncnc3n2C)c(Cl)c1` [Example 1054], the IC50 against FGFR2 is < 100 nM; in the experiment on SNU-16 (setting [1]), ≤ 100 nM.
Take `C#Cc1ccc(-c2c(C3=CC[C@@H](C(=O)N4CCC[C@@H]4C#C)CC3)c3c(N)ncnc3n2C)c(C)n1` (single isomer, unassigned) [Example 1229]: the IC50 is < 100 nM against FGFR2 and ≤ 100 nM with SNU-16 (setting [1]).
Turning to `C#Cc1cc(C)c(-c2c(C3=CC[C@H](C(=O)N4CCC[C@H]4C#N)CC3)c3c(C)ncnc3n2C)c(C)n1` (atropisomer, axis not shown) [Example 1463], the IC50 against FGFR2 was 100 to 250 nM; in the experiment on SNU-16 (setting [1]) it was ≤ 100 nM.
`C#Cc1cc(CC)c(-c2c(-c3ccc(Oc4nccc(C)n4)c(F)c3)c3c(N)ncnc3n2C)cn1` [Example 1217]: the results for the IC50 on FGFR2 and with SNU-16 (setting [1]) were < 100 nM and ≤ 100 nM, respectively.
Turning to `C#Cc1cc(C)c(-c2c(-c3ccc(Oc4ncccn4)c(F)c3)c3c(N)ncnc3n2C)cn1` [Example 1234], the figures for the 50% inhibitory concentration (IC50) against FGFR2 and in the experiment with SNU-16 (setting [1]) were < 100 nM and ≤ 100 nM, respectively.
As to `C=C(C)C(=O)Nc1ccc(-c2c(C3=CC[C@@H](C(=O)N4CCCC4)CC3)c3c(N)ncnc3n2C)c(C)c1` (single isomer, unassigned) [Example 1035], the values for the IC50 against FGFR2 and with SNU-16 (setting [1]) were < 100 nM and ≤ 100 nM, respectively.
As to `C=C(C)C(=O)Nc1ccc(-c2c(C3=CC[C@H](C(=O)N4CCC[C@H]4C)CC3)c3c(N)ncnc3n2C)c(C)c1` [Example 1481], the IC50 against FGFR2 lay within 250 to 1000 nM; in the experiment on SNU-16 (setting [1]) it was 100 to 250 nM.
Take `CNC(=O)/C(C#N)=C/c1ccc(-c2c(-c3ccc(Oc4nccc(C)n4)c(F)c3)c3c(N)ncnc3n2C)c(C)c1` [Example 1309]: the IC50 is < 100 nM against FGFR2 and 250 to 1000 nM with SNU-16 (setting [1]).
For `C#Cc1nc2cc(-c3c(C4=CC[C@@H](C(=O)N5CCCC5)CC4)c4c(N)ncnc4n3C)ccc2n1C` [Example 1369], in that order: < 100 nM and ≤ 100 nM.
Turning to `C#Cc1cc(OC)c(-c2c(-c3ccc(Oc4nccc(C)n4)c(F)c3)c3c(C)ncnc3n2C)c(C)n1` (atropisomer, axis not shown) [Example 1446], the IC50 is < 100 nM on FGFR2 and ≤ 100 nM in the experiment with SNU-16 (SNU-16 cells).
For `CC#Cc1ncc(-c2c(-c3ccc(Oc4nccc(C)n4)cc3)c3c(N)ncnc3n2C)cn1` [Example 1070], the IC50 against FGFR2 was < 100 nM; in the experiment on SNU-16 (setting [1]), ≤ 100 nM.
In the same order, the values of `C#Cc1cc(C)c(-c2cn3ncnc(N)c3c2C2=CC[C@@H](C(=O)N3CCC[C@H]3C)CC2)cn1` [Example 1380] are 250 to 1000 nM and 250 to 1000 nM.
On to `C#Cc1cc(C)c(-c2c(C3=CC[C@@H](C(=O)N4CCC[C@H]4CO)CC3)c3c(N)ncnc3n2C)cn1` (single isomer, unassigned) [Example 1231], for which the IC50 against FGFR2 was < 100 nM; with SNU-16 (setting [1]), ≤ 100 nM.
In the same order, the values of `Cc1ccnc(Oc2ccc(-c3c(-c4ccc(OC[C@H]5CO5)cc4)n(C)c4ncnc(N)c34)cc2)n1` (single isomer, unassigned) [Example 917] are 100 to 250 nM and 100 to 250 nM.
Consider `C=C(C)C(=O)Nc1ccc(-c2c(-c3ccc(-c4ccccc4O)nc3)c3c(N)ncnc3n2C)cc1` [Example 1371], for which the IC50 lay within 1000 to 100000 nM at FGFR2 and 250 to 1000 nM in the experiment on SNU-16 (setting [1]).
Regarding `C#Cc1ncc(-c2c(-c3ccc(Oc4nccc(C)n4)c(F)c3)c3c(N)ncnc3n2C)c(C)c1F` [Example 1313], the IC50 against FGFR2 is < 100 nM; in the experiment on SNU-16 (setting [1]), ≤ 100 nM.
With `CC1=C[C@@H](C)N(c2ccc(-c3c(-c4ccc(Oc5nccc(C)n5)cc4)c4c(N)ncnc4n3C)cc2)C1=O` [Example 1114], the values for the IC50 on FGFR2 and in the experiment on SNU-16 (setting [1]) were 250 to 1000 nM and ≤ 100 nM, respectively.
`C=CC(=O)N[C@H]1CCc2ccc(-c3c(-c4ccc(Oc5nccc(C)n5)cc4)c4c(N)ncnc4n3C)cc2C1` (single isomer, unassigned) [Example 945]: the IC50 on FGFR2 and with SNU-16 (setting [1]) was 1000 to 100000 nM throughout.
Consider `C#Cc1cc(C)c(-c2c(C3=CC[C@]4(CC3)Cc3ccc(C)nc3O4)c3c(C)ncnc3n2C)cn1` [Example 1396], for which the IC50 fell in the range of 250 to 1000 nM against FGFR2 and 1000 to 100000 nM in the experiment with SNU-16 (setting [1]).
Regarding `C=C1C[C@H](C)N(c2ccc(-c3c(-c4ccc(Oc5nccc(C)n5)cc4)c4c(N)ncnc4n3C)cc2)C1=O` [Example 1131], the IC50 against FGFR2 is < 100 nM; in the experiment with SNU-16 (setting [1]) it was ≤ 100 nM.
Regarding `C=C(C)C(=O)Nc1ccc(-c2c(C3=CCCCO3)c3c(N)ncnc3n2C)cc1` [Example 1269], the IC50 against FGFR2 and in the experiment on SNU-16 (setting [1]) was 1000 to 100000 nM in each case.
On to `C=C(C)C(=O)Nc1ccc(-c2c(-c3ccc(Oc4cccc(C)n4)cc3)c3c(N)ncnn3c2CN(C)C)cc1` [Example 856], for which the IC50 against FGFR2 and in the experiment on SNU-16 (setting [1]) was 250 to 1000 nM throughout.
Regarding `C=C(C)C(=O)Nc1cnc(-c2c(-c3ccc(Oc4cccc(C)n4)c(F)c3)c3c(N)ncnc3n2C)c(F)c1` [Example 1086], the IC50 was < 100 nM against FGFR2 and ≤ 100 nM in the experiment on SNU-16 (setting [1]).
Regarding `C=C(C)C(=O)Nc1ccc(-c2c(C3=CC[C@@H](C(=O)N4CC[C@H]5C[C@H]54)CC3)c3c(N)ncnc3n2C)cc1` (single isomer, unassigned) [Example 1039], the IC50 at FGFR2 and in the experiment with SNU-16 (setting [1]) was 1000 to 100000 nM throughout.
On to `C#Cc1cc(C)c(-c2[nH]c3ncnc(N)c3c2-c2ccc(Oc3nccc(C)n3)cc2)cn1` [Example 1130], for which the IC50 against FGFR2 and with SNU-16 (setting [1]) was 250 to 1000 nM each time.
Turning to `Cc1ccnc(Oc2ccc(-c3c(-c4ccc(NC(=O)/C=C/CN(C)C)cc4)n(C)c4ncnc(N)c34)cc2F)n1` [Example 1013], the IC50 against FGFR2 is < 100 nM; in the experiment with SNU-16 (setting [1]), ≤ 100 nM.
`C#Cc1cnc(-c2c(-c3ccc(Oc4nccc(C)n4)cc3)c3c(N)ncnc3n2C)cn1` [Example 1181]: the IC50 is < 100 nM against FGFR2 and ≤ 100 nM in the experiment on SNU-16 (setting [1]).
On to `C=C(C)C(=O)Nc1ccc(-c2c(-c3ccc4c(c3)NC(=O)C4(C)C)c3c(N)ncnc3n2C)cc1` [Example 1283], for which the IC50 at FGFR2 and in the experiment on SNU-16 (setting [1]) was 1000 to 100000 nM in each case.
For the compound `C=C(C)C(=O)N1CC(c2c(-c3ccc(C(=O)N4CCCC4)cc3)c3c(N)ncnc3n2C)=C[C@@H]1C` [Example 903], the IC50 on FGFR2 and in the experiment on SNU-16 (setting [1]) was 1000 to 100000 nM each time.
For `C#Cc1cc(-c2c(-c3ccc(Oc4nccc(C)n4)c(F)c3)c3c(N)ncnc3n2C)ccn1` [Example 1237], the IC50 against FGFR2 was 250 to 1000 nM; with SNU-16 (setting [1]) it was ≤ 100 nM.
In the same order, the values of `C=C(C)C(=O)Nc1ccc(-c2c(-c3ccc4nc(C)sc4c3)c3c(N)ncnc3n2C)cc1` [Example 1279] are 250 to 1000 nM and 250 to 1000 nM.
In the same order, the values of `C#Cc1cnc(-c2c(-c3ccc(Oc4nccc(C)n4)c(F)c3)c3c(N)ncnc3n2C)c(C)n1` [Example 1358] are < 100 nM and ≤ 100 nM.
In the case of `C#Cc1ccc(-c2c(-c3ccc(Oc4nccc(C)n4)c(F)c3)c3c(N)ncnc3n2C(C)C)c(C)n1` [Example 1214], the results for the IC50 against FGFR2 and in the experiment on SNU-16 (setting [1]) were < 100 nM and ≤ 100 nM, respectively.
For `C=C(C)C(=O)Nc1ccc(-c2c(C3=CC[C@H](C(=O)N4CC[C@H]5C[C@H]54)CC3)c3c(N)ncnc3n2C)cc1` (single isomer, unassigned) [Example 1043], in that order: < 100 nM and ≤ 100 nM.
For `COCC#Cc1cc(C)c(-c2c(-c3ccc(Oc4nccc(C)n4)cc3)c3c(N)ncnc3n2C)cn1` [Example 1386], the IC50 is < 100 nM against FGFR2 and ≤ 100 nM in the experiment on SNU-16 (setting [1]).
Consider `C=CC(=O)Nc1cccc(-c2c(C3=CC[C@@H](C(=O)N4CCCC4)CC3)c3c(N)ncnc3n2C)c1` [Example 1019], for which the figures for the IC50 against FGFR2 and with SNU-16 (setting [1]) were < 100 nM and ≤ 100 nM, respectively.
For the compound `C=C(C)C(=O)Nc1ccc(-c2c(-c3ccc(C(=O)N[C@H]4C[C@@H](F)C4)c(OC4CC4)c3)c3c(N)ncnc3n2C)cc1` [Example 976], the IC50 at FGFR2 and with SNU-16 (setting [1]) was 1000 to 100000 nM each time.
As for `C=C1CCN(c2ccc(-c3c(C4=CC[C@H](C(=O)N5CCCC5)CC4)c4c(N)ncnc4n3C)cc2)C1=O` (single isomer, unassigned) [Example 1137], the 50% inhibitory concentration (IC50) against FGFR2 lay within 250 to 1000 nM; in the experiment on SNU-16 (setting [1]) it was 100 to 250 nM.
For the compound `C#Cc1ccc2c(n1)OCCn1c-2c(-c2ccc(Oc3nccc(C)n3)c(F)c2)c2c(N)ncnc21` [Example 1495], the IC50 was < 100 nM at FGFR2 and ≤ 100 nM with SNU-16 (setting [1]).
